Entries after “also recorded” stand apart in the source; their conditions may differ.
Tested on: barnacles
Assay: Paint efficacy testing: coated fiberglass rods suspended in the ocean, number of barnacles counted monthly
Assay type: in vivo
Conditions: paint formulations on rods in the ocean, Beaufort, N.C. coast, 2004
Protocol: A series of nine paint formulations containing 4-bromo-2-(4-chlorophenyl)-5-(trifluoromethyl)-1H-pyrrole-3-carbonitrile (referred to in below table as Pyrrole) and zinc pyrithione (ZPT) were tested by Duke University off the Beaufort, N.C. coast in 2004 for their antifouling effectiveness against barnacles and other fouling organisms. The formulations were created in the laboratory by the addition of various amounts of biocides to a resin base-formulation (vinyl resin/wood rosin with Zn oxide filler). Formulations include 4-bromo-2-(4-chlorophenyl)-5-(trifluoromethyl)-1H-pyrrole-3-carbonitrile alone and in combination with ZPT. A solvent based zinc oxide coating was used as a control. Unprimed fiberglass rods (8 mm diameter×11 cm length) were dip-coated with each formulation (5 rods/formulation) and suspended from a test rack in the ocean (one-meter below the surface). Rods were evaluated each month for number of barnacles and bryozoans. The most promising results came from the formulations in which 4-bromo-2-(4-chlorophenyl)-5-(trifluoromethyl)-1H-pyrrole-3-carbonitrile was blended with ZPT (See Table 1 below).

Structure (SMILES): N#Cc1c(-c2ccc(Cl)cc2)[nH]c(C(F)(F)F)c1Br [4-bromo-2-(4-chlorophenyl)-5-(trifluoromethyl)-1H-pyrrole-3-carbonitrile]
- antifouling effectiveness against barnacles and other fouling organisms (in words): effective antifouling agent for hard fouling organisms such as barnacles; also recorded: performs better with ZPT as a co-biocide than it does alone
